Source: PMC9388906, “Dual inhibition of the Echinococcus multilocularis energy metabolism” (Frontiers in Veterinary Science, 2022)
Like-named read-outs stand apart in the source and are kept apart here.

Experiments:
[1] = system: E. multilocularis metacestodes (isolate Sval); assay: PGI assay (damage marker release), metacestodes, isolate Sval; format: cell-based, Echinococcus multilocularis; details: isolate Sval, 10 μM
Method: (§1) To assess the in vitro efficacy of ELQs against E. multilocularis, (a) the damage-marker phosphoglucose isomerase (PGI) assay was applied against metacestodes, and (b) the germinal layer (GL) cell viability assay was applied to measure effects on isolated GL cells. Both assays are described in more detail below. The drug testing strategy was as follows: PGI assay was first conducted for overview screening at 10 μM with the parasite isolates H95 and Sval. The GL cell viability assay was performed at 0.1 μM with both isolates H95 and Sval.
(§2) The PGI assay measures the amount of PGI that metacestodes release into the medium when damaged ([17], [32]). The purification and in vitro drug incubation of E. multilocularis metacestodes was conducted according to Stadelmann et al. ([32]). In short, cultures were applied for in vitro drug testing at the age of 6-8 weeks. E. multilocularis metacestodes were therefore purified by the addition of 2% saccharose and washed extensively with PBS. Purified metacestodes were suspended 1:3 with DMEM (without phenol red, supplemented with 100 U/mL penicillin, 100 μg/mL streptomycin) and distributed in 48-well plates (1 mL/well, thus 300 μL pure metacestode vesicles per well). […] The corresponding DMSO concentration was used as negative control and Tx-100 (0.1% final concentration) was used for total damage (positive control). […] After 5 days, relative PGI activities were measured and calculated as percentage of the Tx-100 control as described previously in Rufener et al. ([17]). They were calculated as mean values and standard deviations for each triplicate. […] EC50 measurements were performed twice, and averages and standard deviations of these repeated tests are given.

[2] = system: E. multilocularis metacestodes (isolate H95); assay: PGI assay (damage marker release), metacestodes, isolate H95; format: cell-based, Echinococcus multilocularis; details: isolate H95, 5 days
Method: as §1, §2

[3] = system: E. multilocularis GL cells (isolate Sval); assay: GL cell viability assay (CellTiter-Glo), isolate Sval; format: cell-based, Echinococcus multilocularis; details: isolate Sval; 0.1 μM; 5 days; nitrogen atmosphere; mean (SD); active if <30%
Method: as §1
The isolation of E. multilocularis GL cells was done as described previously ([17]) with minor modifications. Fifteen units of GL cells were distributed to each well of a 384 well plate in a total volume of 12.5 μL conditioned medium. The different ELQs were added to the wells to 0.1 μM, in quadruplicates. As a negative control 0.1% DMSO was used. The 384-well plate was incubated for 5 days at 37°C under humid nitrogen atmosphere. Thereafter, viability of the GL cells under different drug treatments was assessed by CellTiter-Glo® (Promega AG, Dübendorf, Switzerland). The CellTiter-Glo reagent was complemented with 1% Tx-100. The luciferase bioluminescence was measured at 530 nm by using the Enspire multilabel reader (PerkinElmer Life Sciences, Schwerzenbach, Switzerland). Using Microsoft Excel, the blank values were subtracted from the experimental values and the relative viability compared to DMSO was calculated. Viabilities were calculated as mean values and standard deviations for each quadruplicate.

[4] = system: Reuber rat hepatoma (Rh) cells; assay: Mammalian cell toxicity, Alamar Blue assay; format: cell-based; details: Alamar blue, 5 days, range tested 30–0.23 μM, mean (SD) of two tests
Method: Compounds were added in a serial dilution (30–0.23 μM, 1:2 dilution steps) and in triplicates. Plates were incubated at 37°C, 5% CO2 and humid atmosphere for 5 days. Resazurin was added to a final concentration of 10 mg/L to each well, and fluorescence measured at 530 nm on an Enspire multilabel plate reader over 3 h. By using Microsoft Office Excel 2010 and a logit-log transformation of the relative growth, IC50 values were calculated. The test was performed twice for each compound, and respective averages and standard deviations are given.

[5] = system: mitochondrial bc1 complex of E. multilocularis GL cells; assay: Seahorse oxygen consumption rate assay; format: cell-based, Echinococcus multilocularis; details: 1 μM; succinate as initial electron donor; restored by ascorbate/TMPD, not by succinate or glycerol 3-phosphate
Method: To measure effects of ELQ-400 on the oxygen consumption rate (OCR), Seahorse assay was conducted according to the method established by Rufener et al. ([17]) and according to the manual for Seahorse XFp Extracellular Flux Analyzer (Agilent Technologies, Bucher Biotec, Basel, Switzerland). E. multilocularis GL cells were isolated and prepared the day before. Cells were centrifuged and resuspended in Mitochondrial Assay Solution (MAS) solution (220 mM mannitol, 70 mM sucrose, 10 mM KH2PO4, 5 mM MgCl2, 2 mM HEPES, and 1 mM EGTA pH 7.2). This cell suspension was centrifuged again and the pellet was resuspended in assay-buffer (MAS, 10 mM succinate, 2 μM rotenone, 4 mM ADP, and 3.6 nM PMP). 100 units of GL cells were distributed to each well of a Seahorse XFp miniplate (Agilent Technologies) pre-coated with CellTak according to the instruction manual (Fisher Scientific, Schwerte, Germany). Two wells were used as blanks with assay buffer without cells. ELQ-400 (1 μM) was diluted in MAS solution and loaded to the delivery ports of the sensor cartridge of the first injection (or DMSO as a control). In the second injection, succinate (10 mM), glycerol 3-phosphate (10 mM), or ascorbate (20 mM) with TMPD (0.6 mM) was added. […] Each drug setup was tested in triplicates and the read-out and analysis was done using the software Wave (Agilent Technologies, Bucher Biotec, Basel, Switzerland). […]

[6] = system: E. multilocularis metacestodes; assay: Succinate concentrations in culture supernatants (malate dismutation activity); format: cell-based, Echinococcus multilocularis; details: 10 μM, 5 days
Method: Both compounds were tested either alone or in combination at 10 μM with the above-described PGI assay for 5 days for their activity against E. multilocularis metacestodes. PGI assays were done in triplicates and two times independently. […] To assess direct effects on the MD, succinate levels were measured in the supernatants of the PGI assay, as described below. To determine whether differences between groups were significant, data was subjected to student's t-test analysis and P-values below 0.05 are given.
Succinate measurements in supernatants of drug-treated E. multilocularis metacestodes was performed with the “Succinic Acid Assay Kit” (Megazyme, Bray, Ireland). […] 20 μL of each diluted (1:20) sample or standard was used in triplicate for succinate measurements in 96-well plates (flat bottom, Greiner Bio-One GmbH, Frickenhausen, Germany). The reaction mix buffer was prepared as described in the supplier manual: per well 180 μL H2O, 20 μL solvent 1 (buffer, pH 8.4, sodium azide 0.02% w/v), 20 μL solvent 2 (NADH plus stabilizer), 20 μL solvent 3 (ATP, PEP, and CoA) and 2 μL solvent 4 (pyruvate kinase plus L-lactate dehydrogenase suspension) were added. After a 180 s pre-incubation time, a first measurement at 340 nm was done on an EnSpire multilabel plate reader (PerkinElmer Life Sciences, Schwerzenbach, Switzerland). 10 μL solvent 5 (succinyl-CoA synthetase suspension; 1:10 diluted) were then added to each well and the plate was read at 340 nm for 1 h every minute. […] Succinate levels are shown as mean values with standard deviations of biological triplicates. To determine whether differences between groups were significant, data was subjected to student's t-test analysis and P-values below 0.05 are given.

## Cc1[nH]c2cc(F)cc(F)c2c(=O)c1-c1ccc(Oc2ccc(OC(F)(F)F)cc2)cc1 [ELQ-400]
[1]; 5 days, normoxic, mean (SD) of triplicates, active if >20%
  Metacestodes, PGI assay, relative to positive control Tx-100: 27 (10.5) %
[1]; threshold >20% of Tx-100
  Activity in PGI assay (activity call): activity
[2]; 10 μM, normoxic, mean (SD) of triplicates, active if >20%
  Metacestodes, PGI assay, relative to positive control Tx-100: 21.4 (2.5) %
[2]; PGI assay, range tested 30–0.12 μM, mean (SD) of two tests, read-out: EC50 metacestodes
  EC50: 1060 nM
[3]
  GL cells, viability via ATP measurements, relative to DMSO control: 14.6 (8.6) %
[4]; confluent Rh cells, read-out: IC50 Rh confluent
  IC50: > 30000 nM
[4]; preconfluent Rh cells, read-out: IC50 Rh preconfluent
  IC50: 1460 nM
[5]
  Oxygen consumption rate (OCR) of GL cells: immediate reduction of the OCR
[6]; anaerobic
  Release of succinate by metacestodes compared to DMSO control: significantly enhanced
[6]; normoxic
  Release of succinate by metacestodes compared to DMSO control: significantly enhanced
